Measurements: US20240270821A1, “GIP/GLP1/GCG TRI-RECEPTOR AGONISTS AND USES THEREOF” (priority 2023, published 2024)
pEC50: −log10 of the molar value. Read-outs that look alike come from different tables or passages of the source. Each block holds one compound with its values, some of them ahead of it. Starred links: 1 amine or outer side, 2 acyl side, 3 side chain; linkers in the order of their positions; H or OH if unused. Non-standard residues stand in square brackets, D forms with d. Residues, ends and D or L forms follow the SMILES beside them. Groups on a side chain read outwards from the residue. No end group written: not given here. *: point of attachment. C20 diacid = O=C(O)CCCCCCCCCCCCCCCCCCC(=O)*; C18 diacid = O=C(O)CCCCCCCCCCCCCCCCC(=O)*; αMePhe(2-F) = C[C@](N)(Cc1ccccc1F)C(=O)O; γGlu = O=C(O)[C@H](CCC(=O)[*:2])N[*:1]; αMe4Pal = C[C@](N)(Cc1ccncc1)C(=O)O; αMeY = C[C@](N)(Cc1ccc(O)cc1)C(=O)O; 4Pal = N[C@@H](Cc1ccncc1)C(=O)O; Aad = N[C@@H](CCCC(=O)O)C(=O)O; αMeL = CC(C)C[C@](C)(N)C(=O)O; αMeS = C[C@](N)(CO)C(=O)O; Orn = NCCC[C@H](N)C(=O)O; AEEA = NCCOCCOCC(=O)O; Aib = CC(C)(N)C(=O)O

Experiments:
Format in all cases: cell-based
[1] = molecular target: hGcgR (Homo sapiens, UniProt P47871); test: Functional cAMP activation in the presence of 0.1% casein (no HSA); conditions: read-out: Relative cAMP EC50, hGcgR;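 also: intracellular cAMP rise after 30 min at 37 °C, read by HTRF against a cAMP standard curve, scaled from buffer only (0%) to maximal control ligand response (100%)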
[2] = molecular target: human GcgR (Homo sapiens, UniProt P47871); test: Functional cAMP activity in the presence of 1% HSA; conditions: read-out: cAMP Rel EC50, hGcgR
[3] = molecular target: T1, hGLP-1R (Homo sapiens, UniProt P43220); test: Functional cAMP activation in the presence of 0.1% casein (no HSA); conditions: read-out: Relative cAMP EC50, hGLP-1R;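 also: intracellular cAMP rise after 30 min at 37 °C read by HTRF, normalized between buffer only (0%) and maximal control ligand (100%), four-parameter variable-slope fit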
[4] = molecular target: T1, hGLP-1R; test: Functional cAMP activity in the presence of 1% HSA; conditions: read-out: cAMP Rel EC50, hGLP-1R
[5] = molecular target: T2, hGIPR (Homo sapiens, UniProt P48546); test: Functional cAMP activity in the presence of 1% HSA; conditions: read-out: cAMP Rel EC50, hGIPR
T2 sequence (P48546 22-466): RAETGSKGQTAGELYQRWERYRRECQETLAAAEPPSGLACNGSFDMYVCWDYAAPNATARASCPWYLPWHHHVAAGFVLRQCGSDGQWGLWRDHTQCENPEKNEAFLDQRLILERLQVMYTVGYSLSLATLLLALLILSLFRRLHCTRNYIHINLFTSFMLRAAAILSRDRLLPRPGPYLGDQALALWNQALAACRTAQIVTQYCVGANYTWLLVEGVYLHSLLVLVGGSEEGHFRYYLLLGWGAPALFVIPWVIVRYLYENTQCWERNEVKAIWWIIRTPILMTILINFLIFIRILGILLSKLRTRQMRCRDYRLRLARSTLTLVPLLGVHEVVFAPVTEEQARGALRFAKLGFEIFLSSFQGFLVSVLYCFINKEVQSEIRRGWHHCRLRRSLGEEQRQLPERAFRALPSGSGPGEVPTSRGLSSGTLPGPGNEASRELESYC

[6] = molecular target: T2, hGIPR; test: Functional cAMP activation in the presence of 0.1% casein (no HSA); conditions: read-out: Relative cAMP EC50, hGIPR;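 also: intracellular cAMP rise after 30 min at 37 °C read by HTRF against a standard curve, scaled between buffer alone (0%) and top control ligand concentration (100%), four-parameter fit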
[7] = in the presence of 0.1% casein (no HSA), geometric mean of relative EC50
[8] = HEK-293 clonal cell line, 1% HSA, geometric mean of relative EC50
[9] = in the presence of 0.1% casein (no HSA), geometric mean
[10] = 0.1% casein, no HSA, geometric mean

hGcgR, sequence (P47871 26-477): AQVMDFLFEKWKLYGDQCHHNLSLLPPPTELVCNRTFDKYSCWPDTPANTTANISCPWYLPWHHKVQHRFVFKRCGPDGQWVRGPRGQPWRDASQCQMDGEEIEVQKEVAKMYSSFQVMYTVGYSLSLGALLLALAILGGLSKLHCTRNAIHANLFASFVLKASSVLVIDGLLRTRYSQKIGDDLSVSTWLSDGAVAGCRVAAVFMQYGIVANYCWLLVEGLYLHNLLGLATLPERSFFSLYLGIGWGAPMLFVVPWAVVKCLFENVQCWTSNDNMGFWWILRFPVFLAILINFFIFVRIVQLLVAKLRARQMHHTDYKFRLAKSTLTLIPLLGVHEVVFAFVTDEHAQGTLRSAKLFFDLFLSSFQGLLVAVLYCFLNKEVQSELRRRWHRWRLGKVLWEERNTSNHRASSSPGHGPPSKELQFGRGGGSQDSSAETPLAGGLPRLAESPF
human GcgR, sequence (P47871 26-477): as above
T1 sequence (P43220 24-463): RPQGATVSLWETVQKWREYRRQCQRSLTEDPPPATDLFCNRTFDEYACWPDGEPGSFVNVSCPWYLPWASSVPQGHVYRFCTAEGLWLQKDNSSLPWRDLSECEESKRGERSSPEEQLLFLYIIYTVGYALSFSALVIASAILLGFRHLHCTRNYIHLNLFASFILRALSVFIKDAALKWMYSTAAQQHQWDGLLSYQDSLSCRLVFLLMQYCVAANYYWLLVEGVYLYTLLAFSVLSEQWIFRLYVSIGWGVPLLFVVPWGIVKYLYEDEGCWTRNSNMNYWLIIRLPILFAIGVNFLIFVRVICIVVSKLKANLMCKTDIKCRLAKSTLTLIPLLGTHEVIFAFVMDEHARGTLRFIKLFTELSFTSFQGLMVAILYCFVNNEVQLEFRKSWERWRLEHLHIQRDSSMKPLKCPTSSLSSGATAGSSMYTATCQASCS

Compound: Y[Aib]QGTFTSD[4Pal]SQ[αMeL]LDKK([AEEA-γGlu-C18 diacid])AQ[αMe4Pal]AFIE[αMeY]LIEGGPSSGAPPPEGS-NH2 [Example 852]
- pEC50 [1, 9]: 8.65
- pEC50 [2]: 5.91
- pEC50 [3, 9]: 9.06
- pEC50 [4]: 6.74
- pEC50 [5]: 7.34
- pEC50 [6, 9]: 9.47

Compound: CC[C@H](C)[C@H](NC(=O)[C@H](Cc1ccccc1)NC(=O)[C@H](C)NC(=O)[C@](C)(Cc1ccncc1)NC(=O)[C@H](CCC(N)=O)NC(=O)[C@H](C)NC(=O)[C@H](CCCCNC(=O)COCCOCCNC(=O)CC[C@H](NC(=O)CC[C@H](NC(=O)CCCCCCCCCCCCCCCCC(=O)O)C(=O)O)C(=O)O)NC(=O)[C@H](CCCN)NC(=O)[C@H](CC(=O)O)NC(=O)[C@H](CC(C)C)NC(=O)[C@](C)(CC(C)C)NC(=O)[C@H](CCC(N)=O)NC(=O)[C@H](CO)NC(=O)[C@H](Cc1ccncc1)NC(=O)[C@H](CC(=O)O)NC(=O)[C@H](CO)NC(=O)[C@@H](NC(=O)[C@H](Cc1ccccc1)NC(=O)[C@@H](NC(=O)CNC(=O)[C@H](CCC(N)=O)NC(=O)C(C)(C)NC(=O)[C@@H](N)Cc1ccc(O)cc1)[C@@H](C)O)[C@@H](C)O)C(=O)N[C@@H](CCC(=O)O)C(=O)N[C@@H](Cc1ccc(O)cc1)C(=O)N[C@@H](CC(C)C)C(=O)N[C@H](C(=O)N[C@@H](CCC(=O)O)C(=O)N[C@H](C)C(=O)NCC(=O)N1CCC[C@H]1C(=O)N[C@@H](CO)C(=O)N[C@@H](CO)C(=O)NCC(=O)N[C@@H](C)C(=O)N1CCC[C@H]1C(=O)N1CCC[C@H]1C(=O)N1CCC[C@H]1C(=O)N[C@@H](CCC(=O)O)C(=O)NCC(=O)N[C@@H](CO)C(N)=O)[C@@H](C)CC [Example 1020]
- pEC50 [1, 9]: 8.23
- pEC50 [2]: 6.32
- pEC50 [3, 9]: 8.64
- pEC50 [4]: 6.84
- pEC50 [5]: 7.56
- pEC50 [6, 9]: 9.51

Compound: Y[Aib]QGTFTSDFS[Orn][αMeL]LDKK([AEEA-γGlu-γGlu-C18 diacid])AQ[Aib]AFIEYLLAGGPSSGEPPPSGS-NH2 [Example 153]
- pEC50 [1, 9]: 7.83
- pEC50 [2]: 5.92
- pEC50 [3, 9]: 8.15
- pEC50 [4]: 6.31
- pEC50 [5]: 7.77
- pEC50 [6, 9]: 9.66

Compound: H-Y[Aib]QGT[αMePhe(2-F)]TSD[4Pal][αMeS]I[αMeL]LD[Orn][Orn]([AEEA-γGlu-C18 diacid])AQ[αMe4Pal]EFI[dE][αMeY]LIEGGPSSGAPPPSGS-NH2 [Example 1211]
- pEC50 [1, 10]: 8.84
- pEC50 [2]: 6.68
- pEC50 [3, 10]: 9.56
- pEC50 [4]: 7.48
- pEC50 [5]: 9.31
- pEC50 [6, 10]: 11.23

Compound: CC[C@H](C)[C@H](NC(=O)[C@H](CO)NC(=O)[C@H](Cc1ccc(O)cc1)NC(=O)[C@H](CC(=O)O)NC(=O)[C@H](CO)NC(=O)[C@@H](NC(=O)[C@](C)(Cc1ccccc1F)NC(=O)[C@@H](NC(=O)CNC(=O)[C@H](CCC(N)=O)NC(=O)C(C)(C)NC(=O)[C@@H](N)Cc1ccc(O)cc1)[C@@H](C)O)[C@@H](C)O)C(=O)N[C@@H](CC(C)C)C(=O)N[C@@H](CC(C)C)C(=O)N[C@@H](CC(=O)O)C(=O)N[C@@H](CCCCN)C(=O)N[C@@H](CCCCNC(=O)CC[C@H](NC(=O)CC[C@H](NC(=O)CCCCCCCCCCCCCCCCC(=O)O)C(=O)O)C(=O)O)C(=O)N[C@@H](C)C(=O)N[C@@H](CCC(N)=O)C(=O)NC(C)(C)C(=O)N[C@@H](CCCC(=O)O)C(=O)N[C@@H](Cc1ccccc1)C(=O)N[C@H](C(=O)N[C@@H](CCC(=O)O)C(=O)N[C@@H](Cc1ccc(O)cc1)C(=O)N[C@@H](CC(C)C)C(=O)N[C@@H](CCC(=O)O)C(=O)N[C@@H](CCC(=O)O)C(=O)NCC(=O)NCC(=O)N1CCC[C@H]1C(=O)N[C@@H](CO)C(=O)N[C@@H](CO)C(=O)NCC(=O)N[C@@H](C)C(=O)N1CCC[C@H]1C(=O)N1CCC[C@H]1C(=O)N1CCC[C@H]1C(=O)N[C@@H](CO)C(N)=O)[C@@H](C)CC [Example 415] (H-Y[Aib]QGT[αMePhe(2-F)]TSDYSILLDKK([γGlu-γGlu-C18 diacid])AQ[Aib][Aad]FIEYLEEGGPSSGAPPPS-NH2)
- pEC50 [1]: 8.06
- pEC50 [2]: 5.96
- pEC50 [3]: 9.42
- pEC50 [4]: 7.28
- pEC50 [5]: 7.54
- pEC50 [6]: 10.30

Compound: Y[Aib]QGTFTSD[4Pal]SQ[αMeL]LD[Orn]K([AEEA-γGlu-γGlu-C18 diacid])AQ[αMe4Pal]AFIEYLIE[dA]GPSSGAPPPSGS-NH2 [Example 1016]
- pEC50 [1, 9]: 8.25
- pEC50 [2]: 6.20
- pEC50 [3, 9]: 8.81
- pEC50 [4]: 6.81
- pEC50 [5]: 7.51
- pEC50 [6, 9]: 9.66

Compound: CC[C@H](C)[C@H](NC(=O)[C@H](Cc1ccccc1)NC(=O)[C@H](C)NC(=O)C(C)(C)NC(=O)[C@H](CCC(N)=O)NC(=O)[C@H](C)NC(=O)[C@H](CCCCNC(=O)COCCOCCNC(=O)CC[C@H](NC(=O)CCCCCCCCCCCCCCCCC(=O)O)C(=O)O)NC(=O)[C@H](CCCCN)NC(=O)[C@H](CC(=O)O)NC(=O)[C@H](CC(C)C)NC(=O)[C@](C)(CC(C)C)NC(=O)[C@@H](NC(=O)[C@H](CO)NC(=O)[C@H](Cc1ccc(O)cc1)NC(=O)[C@H](CC(=O)O)NC(=O)[C@H](CO)NC(=O)[C@@H](NC(=O)[C@](C)(Cc1ccccc1F)NC(=O)[C@@H](NC(=O)CNC(=O)[C@H](CCC(N)=O)NC(=O)C(C)(C)NC(=O)[C@@H](N)Cc1ccc(O)cc1)[C@@H](C)O)[C@@H](C)O)[C@@H](C)CC)C(=O)N[C@@H](CCC(=O)O)C(=O)N[C@@H](Cc1ccc(O)cc1)C(=O)N[C@@H](CC(C)C)C(=O)N[C@@H](CCC(=O)O)C(=O)N[C@@H](CCC(=O)O)C(=O)NCC(=O)NCC(=O)N1CCC[C@H]1C(=O)N[C@@H](CO)C(=O)N[C@@H](CO)C(=O)NCC(=O)N[C@@H](C)C(=O)N1CCC[C@H]1C(=O)N1CCC[C@H]1C(=O)N1CCC[C@H]1C(=O)N[C@@H](CO)C(=O)N[C@@H](CCC(=O)O)C(N)=O [Example 424] (H-Y[Aib]QGT[αMePhe(2-F)]TSDYSI[αMeL]LDKK([AEEA-γGlu-C18 diacid])AQ[Aib]AFIEYLEEGGPSSGAPPPSE-NH2)
- pEC50 [1]: 8.51
- pEC50 [2]: 6.35
- pEC50 [3]: 9.50
- pEC50 [4]: 7.53
- pEC50 [5]: 8.49
- pEC50 [6]: 10.81

Compound: Y[Aib]QGT[αMePhe(2-F)]TSDYSKILDKIAQK([AEEA-γGlu-C20 diacid])AFIQYLIEGGPSSGEPPPSEG-NH2 [Example 354]
- pEC50 [1, 9]: 8.10
- pEC50 [2]: 5.84
- pEC50 [3, 9]: 8.92
- pEC50 [4]: 6.76
- pEC50 [5]: 7.62
- pEC50 [6, 9]: 9.87

Other lines, results leading:

- pEC50 [1, 7]: 8.09
- pEC50 [2, 8]: 6.06
- pEC50 [3, 7]: 9.12
- pEC50 [4, 8]: 7.13
- pEC50 [5, 8]: 8.53
- pEC50 [6, 7]: 10.63
Compound: H-Y[Aib]QGT[αMePhe(2-F)]TSD[4Pal]SI[αMeL]LDKK([γGlu-γGlu-C18 diacid])AQ[Aib]AFIEYLEEGGPSSGEPPPSGSEE-NH2 [Example 630]

- pEC50 [1]: 8.42
- pEC50 [2]: 6.33
- pEC50 [3]: 9.45
- pEC50 [4]: 7.42
- pEC50 [5]: 8.28
- pEC50 [6]: 10.16
Compound: H-Y[Aib]QGT[αMePhe(2-F)]TSD[4Pal][αMeS]ILLD[Orn]K([γGlu-γGlu-C18 diacid])AQ[Aib][Orn]FI[dE]YLIEGGPSSGEPPPSGTE-NH2 [Example 531]

- pEC50 [1, 9]: 8.85
- pEC50 [2]: 6.74
- pEC50 [3, 9]: 9.42
- pEC50 [4]: 7.30
- pEC50 [5]: 9.12
- pEC50 [6, 9]: 11.06
Compound: H-Y[Aib]QGT[αMePhe(2-F)]TSD[4Pal][αMeS]I[αMeL]LD[Orn]K([AEEA-γGlu-C18 diacid])AQ[αMe4Pal]EFI[dE][αMeY]LIEGGPSSGEPPPTGE-NH2 [Example 1143]

- pEC50 [1]: 8.70
- pEC50 [2]: 6.69
- pEC50 [3]: 9.52
- pEC50 [4]: 7.41
- pEC50 [5]: 8.87
- pEC50 [6]: 11.11
Compound: H-Y[Aib]QGT[αMePhe(2-F)]TSD[4Pal][αMeS]I[αMeL]LD[Orn]K([AEEA-γGlu-C18 diacid])AQ[αMe4Pal]EFI[dE][αMeY]LVEGGPSSGEPPPSGE-NH2 [Example 750]

- pEC50 [1]: 8.83
- pEC50 [2]: 7.18
- pEC50 [3]: 9.67
- pEC50 [4]: 8.08
- pEC50 [5]: 9.14
- pEC50 [6]: 10.97
Compound: H-Y[Aib]QGT[αMePhe(2-F)]TSD[4Pal][αMeS]I[αMeL]LD[Orn]K([γGlu-γGlu-C18 diacid])AQ[Aib][Orn]FI[dE][αMeY]LIEGGPSSGEPPPSEG-NH2 [Example 480]
